# Several values for one entry are separate records, joined by “and”; a condition that tells them apart may be missing. Equal values may be shown once. Activity calls are given as the source filed them. No cut-off for these calls is given here.
# Columns and labels:
# Mus musculus [1] = experiment: Effect on liver weight in ddY mouse at 10 mg/kg/day, po after 14 to 15 days; assay type: functional
# Mus musculus [2] = experiment: Reduction of visceral fat in ddY mouse at 10 mg/kg/day, po after 14 to 15 days; assay type: functional
# Mus musculus [3] = experiment: Reduction of paranephric fat in ddY mouse at 10 mg/kg/day, po after 14 to 15 days; assay type: functional
# Mus musculus [4] = experiment: Reduction of epididymal fat in ddY mouse at 10 mg/kg/day, po after 14 to 15 days; assay type: functional
# Mus musculus [5] = experiment: Reduction of mesenteric fat in ddY mouse at 10 mg/kg/day, po after 14 to 15 days; assay type: functional
# Mus musculus [6] = experiment: Effect on total plasma cholesterol in ddY mouse at 10 mg/kg/day, po after 14 to 15 days; assay type: functional
# Mus musculus [7] = experiment: Effect on plasma triglyceride in ddY mouse at 10 mg/kg/day, po after 14 to 15 days; assay type: functional
# Mus musculus [8] = experiment: Effect on liver triglyceride in ddY mouse at 10 mg/kg/day, po after 14 to 15 days; assay type: functional
# Mus musculus [9] = experiment: Effect on D-glucose level in ddY mouse plasma at 0.1 to 10 mg/kg/day for 15 days; assay type: functional
# Mus musculus [10] = experiment: Effect on free fatty acid in ddY mouse plasma at 10 mg/kg/day, po after 14 to 15 days; assay type: functional
# Mus musculus [11] = experiment: Effect on food intake in ddY mouse at 10 mg/kg/day, po after 14 to 15 days; assay type: functional
# Mus musculus [12] = experiment: Effect on plasma triglyceride in ddY mouse at 0.1 mg/kg/day, po after 14 to 15 days; assay type: functional
# Mus musculus [13] = experiment: Effect on liver triglyceride in ddY mouse at 1 mg/kg/day, po after 14 to 15 days; assay type: functional
# Mus musculus [14] = experiment: Reduction of mesenteric fat in ddY mouse at 1 mg/kg/day, po after 14 to 15 days; assay type: functional
# Mus musculus [15] = experiment: Reduction of mesenteric fat in ddY mouse at mg/kg/day, po after 14 to 15 days; assay type: functional
# Mus musculus [16] = experiment: Reduction of epididymal fat in ddY mouse at 1 mg/kg/day, po after 14 to 15 days; assay type: functional
# Mus musculus [17] = experiment: Reduction of paranephric fat in ddY mouse at 1 mg/kg/day, po after 14 to 15 days; assay type: functional
# Mus musculus [18] = experiment: Reduction of visceral fat in ddY mouse at 12.5 mg/kg/day, po after 14 to 15 days; assay type: functional
# Mus musculus [19] = experiment: Effect on liver weight in ddY mouse at 0.1 mg/kg/day, po after 14 to 15 days; assay type: functional
# Mus musculus [20] = experiment: Reduction of visceral fat in ddY mouse at 50 mg/kg/day, po after 14 to 15 days; assay type: functional
# Mus musculus [21] = experiment: Effect on liver triglyceride in ddY mouse at 50 mg/kg/day, po after 14 to 15 days; assay type: functional
# Mus musculus [22] = experiment: Effect on total plasma cholesterol in ddY mouse at 12.5 mg/kg/day, po after 14 to 15 days; assay type: functional
# Mus musculus [23] = experiment: Effect on plasma triglyceride in ddY mouse at 12.5 mg/kg/day, po after 14 to 15 days; assay type: functional
# Mus musculus [24] = experiment: Effect on liver triglyceride in ddY mouse at 12.5 mg/kg/day, po after 14 to 15 days; assay type: functional
# Mus musculus [25] = experiment: Effect on total plasma cholesterol in ddY mouse at 0.1 mg/kg/day, po after 14 to 15 days; assay type: functional
# Mus musculus [26] = experiment: Effect on liver weight in ddY mouse at 12.5 mg/kg/day, po after 14 to 15 days; assay type: functional
# Mus musculus [27] = experiment: Effect on total plasma cholesterol in ddY mouse at 50 mg/kg/day, po after 14 to 15 days; assay type: functional
# Mus musculus [28] = experiment: Effect on liver weight in ddY mouse at 1 mg/kg/day, po after 14 to 15 days; assay type: functional
# Mus musculus [29] = experiment: Reduction of paranephric fat in ddY mouse at 12.5 mg/kg/day, po after 14 to 15 days; assay type: functional
# Mus musculus [30] = experiment: Effect on free fatty acid in ddY mouse plasma at 1 mg/kg/day, po after 14 to 15 days; assay type: functional
# Mus musculus [31] = experiment: Reduction of mesenteric fat in ddY mouse at 0.1 mg/kg/day, po after 14 to 15 days; assay type: functional
# Mus musculus [32] = experiment: Effect on liver weight in ddY mouse at 25 mg/kg/day, po after 14 to 15 days; assay type: functional
# Mus musculus [33] = experiment: Effect on total plasma cholesterol in ddY mouse at 1 mg/kg/day, po after 14 to 15 days; assay type: functional
# Mus musculus [34] = experiment: Reduction of visceral fat in ddY mouse at 25 mg/kg/day, po after 14 to 15 days; assay type: functional
# Mus musculus [35] = experiment: Effect on liver weight in ddY mouse at 50 mg/kg/day, po after 14 to 15 days; assay type: functional
# Mus musculus [36] = experiment: Effect on food intake in ddY mouse at 50 mg/kg/day, po after 14 to 15 days; assay type: functional
# Mus musculus [37] = experiment: Reduction of paranephric fat in ddY mouse at 25 mg/kg/day, po after 14 to 15 days; assay type: functional
# Mus musculus [38] = experiment: Reduction of paranephric fat in ddY mouse at 50 mg/kg/day, po after 14 to 15 days; assay type: functional
# Mus musculus [39] = experiment: Effect on liver triglyceride in ddY mouse at 0.1 mg/kg/day, po after 14 to 15 days; assay type: functional
# Liver = experiment: Increase in expression of PPAR alpha mRNA level in liver tissue of orally dosed ddY mouse, after 24 hrs; assay type: functional, organism-based
# Mus musculus [40] = experiment: Reduction of mesenteric fat in ddY mouse at 25 mg/kg/day, po after 14 to 15 days; assay type: functional
# Mus musculus [41] = experiment: Effect on food intake in ddY mouse at 1 mg/kg/day, po after 14 to 15 days; assay type: functional
# Mus musculus [42] = experiment: Effect on plasma triglyceride in ddY mouse at 50 mg/kg/day, po after 14 to 15 days; assay type: functional
# Mus musculus [43] = experiment: Effect on free fatty acid in ddY mouse plasma at 12.5 mg/kg/day, po after 14 to 15 days; assay type: functional
# Mus musculus [44] = experiment: Effect on food intake in ddY mouse at 25 mg/kg/day, po after 14 to 15 days; assay type: functional
# Mus musculus [45] = experiment: Effect on plasma triglyceride in ddY mouse at 1 mg/kg/day, po after 14 to 15 days; assay type: functional
# Mus musculus [46] = experiment: Reduction of epididymal fat in ddY mouse at 0.1 mg/kg/day, po after 14 to 15 days; assay type: functional
# Mus musculus [47] = experiment: Reduction of epididymal fat in ddY mouse at 50 mg/kg/day, po after 14 to 15 days; assay type: functional
# Mus musculus [48] = experiment: Reduction of epididymal fat in ddY mouse at 12.5 mg/kg/day, po after 14 to 15 days; assay type: functional
# Mus musculus [49] = experiment: Effect on food intake in ddY mouse at 0.1 mg/kg/day, po after 14 to 15 days; assay type: functional
# Mus musculus [50] = experiment: Effect on free fatty acid in ddY mouse plasma at 0.1 mg/kg/day, po after 14 to 15 days; assay type: functional
# Mus musculus [51] = experiment: Reduction of visceral fat in ddY mouse at 1 mg/kg/day, po after 14 to 15 days; assay type: functional
# Mus musculus [52] = experiment: Reduction of paranephric fat in ddY mouse at 0.1 mg/kg/day, po after 14 to 15 days; assay type: functional
# Mus musculus [53] = experiment: Effect on free fatty acid in ddY mouse plasma at 50 mg/kg/day, po after 14 to 15 days; assay type: functional
# Mus musculus [54] = experiment: Reduction of epididymal fat in ddY mouse at 25 mg/kg/day, po after 14 to 15 days; assay type: functional
# Mus musculus [55] = experiment: Effect on food intake in ddY mouse at 12.5 mg/kg/day, po after 14 to 15 days; assay type: functional
# Mus musculus [56] = experiment: Reduction of visceral fat in ddY mouse at 0.1 mg/kg/day, po after 14 to 15 days; assay type: functional
# Mus musculus [57] = experiment: Reduction of mesenteric fat in ddY mouse at 50 mg/kg/day, po after 14 to 15 days; assay type: functional
smiles,measurement,setting,value
O=c1c(O[C@@H]2O[C@H](CO)[C@@H](O)[C@H](O)[C@H]2O)c(-c2ccc(O)cc2)oc2cc(O)cc(O)c12 [ASTRAGALIN],Activity,Mus musculus [1],1640 mg
same,Activity,Mus musculus [2],1770 mg
same,Activity,Mus musculus [3],293 mg
same,Activity,Mus musculus [4],797 mg
same,Activity,Mus musculus [5],680 mg
same,Activity,Mus musculus [6],119 mg/dL
same,Activity,Mus musculus [7],113 mg/dL
same,Activity,Mus musculus [8],64.8 mg/g
same,Activity,Mus musculus [9],99 mg/dL
same,Activity,Mus musculus [10],1.7 mEq/L
same,Activity,Mus musculus [11],4.34 g/day
O=C(O)/C=C/c1ccc(O)cc1 [COUMARIC ACID],Activity,Mus musculus [1],1640 mg
same,Activity,Mus musculus [2],1920 mg
same,Activity,Mus musculus [3],307 mg
same,Activity,Mus musculus [4],847 mg
same,Activity,Mus musculus [5],761 mg
same,Activity,Mus musculus [6],143 mg/dL
same,Activity,Mus musculus [7],162 mg/dL
same,Activity,Mus musculus [8],58.2 mg/g
same,Activity,Mus musculus [9],106 mg/dL
same,Activity,Mus musculus [10],1.67 mEq/L
same,Activity,Mus musculus [11],4.3 g/day
O=c1c(O)c(-c2ccc(O)cc2)oc2cc(O)cc(O)c12 [KAEMPFEROL],Activity,Mus musculus [1],1520 mg
same,Activity,Mus musculus [2],2120 mg
same,Activity,Mus musculus [3],418 mg
same,Activity,Mus musculus [4],896 mg
same,Activity,Mus musculus [5],804 mg
same,Activity,Mus musculus [6],149 mg/dL
same,Activity,Mus musculus [7],139 mg/dL
same,Activity,Mus musculus [8],60.3 mg/g
same,Activity,Mus musculus [9],110 mg/dL
same,Activity,Mus musculus [10],1.72 mEq/L
same,Activity,Mus musculus [11],4.2 g/day
O=C(/C=C/c1ccc(O)cc1)OC[C@H]1O[C@@H](Oc2c(-c3ccc(O)cc3)oc3cc(O)cc(O)c3c2=O)[C@H](O)[C@@H](O)[C@@H]1O [TILIROSIDE],Activity,Mus musculus [12],119 mg/dL
same,Activity,Mus musculus [13],30.8 mg/g
same,Activity,Mus musculus [14],509 mg
same,Activity,Mus musculus [15],745 mg
same,Activity,Mus musculus [16],407 mg
same,Activity,Mus musculus [17],141 mg
same,Activity,Mus musculus [18],2240 mg
same,Activity,Mus musculus [19],1490 mg
same,Activity,Mus musculus [20],1950 mg
same,Activity,Mus musculus [21],63.9 mg/g
same,Activity,Mus musculus [1],1500 mg
same,Activity,Mus musculus [22],156 mg/dL
same,Activity,Mus musculus [23],169 mg/dL
same,Activity,Mus musculus [24],60.4 mg/g
same,Activity,Mus musculus [25],108 mg/dL
same,Activity,Mus musculus [2],998 mg and 1450 mg
same,Activity,Mus musculus [26],1590 mg
same,Activity,Mus musculus [3],132 mg and 266 mg
same,Activity,Mus musculus [27],144 mg/dL
same,Activity,Mus musculus [28],1390 mg
same,Activity,Mus musculus [29],350 mg
same,Activity,Mus musculus [4],350 mg and 626 mg
same,Activity,Mus musculus [5],516 mg and 561 mg
same,Activity,Mus musculus [30],1.01 mEq/L
same,Activity,Mus musculus [31],662 mg
same,Activity,Mus musculus [32],1590 mg and 1680 mg
same,Activity,Mus musculus [33],102 mg/dL
same,Activity,Mus musculus [34],2050 mg and 1260 mg
same,Activity,Mus musculus [35],1560 mg
same,Activity,Mus musculus [36],5 g/day
same,Activity,Mus musculus [37],394 mg and 194 mg
same,Activity,Mus musculus [38],330 mg
same,Activity,Mus musculus [39],46.7 mg/g
same,Activity,Liver,Active
same,Activity,Mus musculus [40],738 mg and 508 mg
same,Activity,Mus musculus [41],5 g/day
same,Activity,Mus musculus [42],161 mg/dL
same,Activity,Mus musculus [43],1.5 mEq/L
same,Activity,Mus musculus [44],5 g/day and 5.4 g/day
same,Activity,Mus musculus [45],95 mg/dL
same,Activity,Mus musculus [46],716 mg
same,Activity,Mus musculus [47],811 mg
same,Activity,Mus musculus [48],1140 mg
same,Activity,Mus musculus [49],4.7 g/day
same,Activity,Mus musculus [50],1.17 mEq/L
same,Activity,Mus musculus [9],93 mg/dL
same,Activity,Mus musculus [51],1060 mg
same,Activity,Mus musculus [52],284 mg
same,Activity,Mus musculus [53],1.44 mEq/L
same,Activity,Mus musculus [11],5.3 g/day and 4.22 g/day
same,Activity,Mus musculus [54],918 mg and 558 mg
same,Activity,Mus musculus [55],5.7 g/day
same,Activity,Mus musculus [56],1660 mg
same,Activity,Mus musculus [57],812 mg
